Test results published in patent US20230391868A1, “COMPOSITIONS FOR AND METHODS OF TREATING CANCER” (The George Washington University, priority 2022, published 2023).

What was measured:
[1] = test system: A31A7 macrophages and BMDMs; assay: Macrophage M1/M2 marker gene expression by qRT-PCR; format: cell-based, mouse; settings: A31A7; qRT-PCR (FIG. 7D-FIG. 7E)
Description: Bone marrow-derived macrophages were isolated from the femurs and tibias of wild-type C57/Bl6, HDAC6 knockout (C57BL/6J-Hdac6em2Lutzy/J, 029318, Jackson Laboratory), or UBC-GFP (C57BL/6-Tg(UBC-GFP)30Scha/J, 004353, Jackson Laboratory). Isolated bone marrow cells were cultured in RPMI 1640 complete medium with 10% FBS, 1% NEAA, and 1% penicillin-streptomycin in 5% CO2 at 37° C. Medium was supplemented with murine recombinant M-CSF (20 ng/mL, 576404, Biolegend) to differentiate monocytes into macrophages. Three days after bone marrow isolation, undifferentiated and floating cells were washed with PBS and replaced with fresh RPMI media. […]
(§1) Macrophages were polarized to M1-like phenotype using 50 ng/mL of interferon gamma (IFNγ, 575306, Biolegend) and 100 ng/mL of bacterial lipopolysaccharide (LPS, L2880, Sigma Aldrich, St. Louis, MO) for 24 hours. To polarize macrophages towards the M2-like phenotype, macrophages were stimulated with 20 ng/mL of IL-4 (214-14, PeproTech) and 20 ng/mL of IL-13 (575904, Biolegend). THP1 monocytes were treated with 5 ng/mL of phorbol 12-myristate 13-acetate (PMA) to induce differentiation into macrophages. Once converted to macrophages, media was replaced to remove PMA prior to treatment and/or polarization. Polarization towards M1 and M2 phenotypes was performed with respective recombinant human cytokines from PeproTech: 50 ng/mL of IFNγ (300-02), 20 ng/mL IL-4 (200-04), and 20 ng/mL IL-13 (200-13). 100 ng/mL LPS was also used to polarize toward the M1 phenotype. 3. In vivo Studies.
(§2) qRT-PCR: Total RNA was extracted from cells using the Trizol reagent according to manufacturer's instructions (ThermoFisher Scientific, 15596018). Samples were then processed immediately or stored at −80° C. RNA was quantified using a NanoDrop One Spectrophotometer (ThermoFisher Scientific). The 260/280 ratios were routinely over 1.8. Sample cDNA was produced using the iScript cDNA synthesis kit (Bio-Rad, 1708891). Target mRNA was quantified using MyIQ single-color real-time PCR detection system from Bio-Rad (Bio-Rad, Hercules, CA) and iQ SYBR green Supermix (Bio-Rad, 1708882). The following primers were synthesized by Invitrogen (Waltham, MA) with sequences designed by Origene (Rockville, MD): mouse R-actin (MP200232), mouse Nos2 (MP208933), mouse MRC1 (MP207800), human R-actin (HP204660), human IL-1β (HP200544), human MRC1 (HP206121), human NOS2 (HP200591), human CD209 (HP214086), mouse SIRPα (MP215450), mouse LRP1 (MP207604), human LRP1 (HP206040), mouse MFGE8 (MP208190), human MFGE8 (HP225757), mouse CD36 (MP201923), human CD36 (HP200058), and mouse CD47 (MP201932). Primers for mouse ARG-1 (PPM31770C) and human SIRPα (QT01031051) were purchased from Qiagen (Hilden, Germany). Human CD47 primer sequences were obtained from Sudo T, et al and are 5′-[…]-3′ (sense) (SEQ ID NO:01) and 5′-[…]-3′ (antisense) (SEQ ID NO:02) (Sudo T, et al. (2017) Oncol. Lett. 14:801-809). Human CD86 primer sequences are 5′-[…]-3′ (sense) (SEQ ID NO:03) and 5′-[…]-3′ (antisense) (SEQ ID NO:04). Mouse CD80 sequences are 5′-[…]-3′ (sense) (SEQ ID NO:05) and 5′-[…]-3′ (antisense) (SEQ ID NO:06). Cycling conditions were set as per manufacturer's instructions. Single product amplification was confirmed by melting curve analysis. Quantification is expressed in arbitrary units and target mRNA levels were normalized to R-actin expression.

THP1-derived macrophages = assay: M1/M2 marker gene expression in THP1-derived macrophages by qRT-PCR; format: cell-based, human; settings: gene expression (FIG. 7H)
Description: as §1
as §2, with “expression. […]” for “expression.”

[2] = test system: human THP1-derived macrophages; assay: Pro-phagocytic signal gene expression in THP1-derived macrophages; format: cell-based; settings: human THP1-derived macrophages (FIG. 8E); corroboration of NextA increase
Description: as §1
(§3) qRT-PCR: Total RNA was extracted from cells using the Trizol reagent according to manufacturer's instructions (ThermoFisher Scientific, 15596018). Samples were then processed immediately or stored at −80° C. RNA was quantified using a NanoDrop One Spectrophotometer (ThermoFisher Scientific). The 260/280 ratios were routinely over 1.8. Sample cDNA was produced using the iScript cDNA synthesis kit (Bio-Rad, 1708891). Target mRNA was quantified using MyIQ single-color real-time PCR detection system from Bio-Rad (Bio-Rad, Hercules, CA) and iQ SYBR green Supermix (Bio-Rad, 1708882). The following primers were synthesized by Invitrogen (Waltham, MA) with sequences designed by Origene (Rockville, MD): mouse R-actin (MP200232), mouse Nos2 (MP208933), mouse MRC1 (MP207800), human R-actin (HP204660), human IL-1β (HP200544), human MRC1 (HP206121), human NOS2 (HP200591), human CD209 (HP214086), mouse SIRPα (MP215450), mouse LRP1 (MP207604), human LRP1 (HP206040), mouse MFGE8 (MP208190), human MFGE8 (HP225757), mouse CD36 (MP201923), human CD36 (HP200058), and mouse CD47 (MP201932). […] Quantification is expressed in arbitrary units and target mRNA levels were normalized to R-actin expression.

[3] = biological target: mouse CD47 on the surface of SM1 melanoma cells (mouse) (UniProt Q61735); assay: flow cytometry titration on SM1 cells; free CD47 read with PE anti-mouse CD47 (miap301), bound antibody read with PE anti-rat IgG2a
UniProt Q61735, sequence (Q61735 19-303): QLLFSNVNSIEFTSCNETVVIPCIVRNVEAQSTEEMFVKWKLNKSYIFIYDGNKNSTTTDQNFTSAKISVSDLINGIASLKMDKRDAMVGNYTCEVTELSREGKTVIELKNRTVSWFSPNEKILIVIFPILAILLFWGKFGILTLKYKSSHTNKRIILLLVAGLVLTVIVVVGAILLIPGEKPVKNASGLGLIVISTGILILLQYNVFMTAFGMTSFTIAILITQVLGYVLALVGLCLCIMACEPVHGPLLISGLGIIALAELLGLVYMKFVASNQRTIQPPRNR

SM1 melanoma cells = assay: Cd47 mRNA upon IFNγ stimulation in SM1 cells; format: cell-based, mouse
Description: as §3, with “(MP201932). Primers for mouse ARG-1 (PPM31770C) and human SIRPα (QT01031051) were purchased from Qiagen (Hilden, Germany).” for “(MP201932).”
(§4) Although the mechanism by which IFNγ drives CD47 upregulation is unclear, IFNγ expression correlates to CD47 expression in skin cutaneous melanoma (Ye Z H, et al. (2021) Transl. Oncol. 14:101162). The kinetics of Cd47 mRNA in SM1 and B16 cells upon IFNγ stimulation (100 ng/mL) were evaluated and these mouse melanoma models were determined to have different kinetics (FIG. 9A-FIG. 9B). It was determined that 12 hours was a time point for both models to sustain the IFNγ-mediated upregulation. In FIG. 9B, the role of HDAC6 inhibitors NextA and Tubastatin A in abrogating Cd47 upregulation upon stimulation with IFNγ for 12 hours was evaluated.

B16 melanoma cells = assay: Cd47 mRNA upon IFNγ stimulation in B16 cells; format: cell-based, mouse
Description: as §3, with “(MP201932). Primers for mouse ARG-1 (PPM31770C) and human SIRPα (QT01031051) were purchased from Qiagen (Hilden, Germany).” for “(MP201932).”
as §4

[4] = Laengle J, et al. (2020); cited from earlier work
[5] = IFNγ stimulation (100 ng/mL) for 12 hours

| Molecule | Arg1 in M2 polarized macrophages [1] | Cd80 expression in M1-like macrophages [1] | effects on THP1-derived macrophage M2-like polarization (THP1-derived macrophages) | expression of pro-phagocytic signals [2] | further results |
| --- | --- | --- | --- | --- | --- |
| O=C(CCCCCCC(=O)Nc1ccc([C@H]2O[C@@H](CSc3nc(-c4ccccc4)c(-c4ccccc4)o3)C[C@@H](c3ccc(CO)cc3)O2)cc1)NO [Tubacin] | downregulated | upregulated | verified | corroborated | – |
| anti-mouse CD47 (clone miap301, 127502, Biolegend) (antibody) | – | – | – | – | lowest antibody concentration that provided maximum surface CD47 blockade and epitope saturation [3]: 25 µg/mL |
| CN1CCc2c(c3ccccc3n2Cc2ccc(C(=O)NO)cc2)C1 [Tubastatin A] | downregulated | upregulated | verified | corroborated | IFNγ-driven Cd47 upregulation at the transcriptional level (SM1 melanoma cells; IFNγ for 12 hours): repressed these effects; IFNγ-driven Cd47 upregulation at the transcriptional level (B16 melanoma cells; IFNγ for 12 hours): repressed these effects |
| O=C(CCCCCCC(=O)Nc1ccccc1)NO [SAHA, suberoylanilide hydroxamic acid] | – | – | – | – | trastuzumab-mediated phagocytosis [4]: enhance trastuzumab-mediated phagocytosis |
| IFNγ: interferon gamma, cytokine used to stimulate Cd47 upregulation (protein, UniProt P01580 23-155, looked up) Interferon gamma: HGTVIESLESLNNYFNSSGIDVEEKSLFLDIWRNWQKDGDMKILQSQIISFYLRLFEVLKDNQAISNNISVIESHLITTFFSNSKAKKDAFMSIAKFEVNNPQVQRQAFNELIRVVHQLLPESSLRKRKRSRC | – | – | – | – | Cd47 upregulation (SM1 melanoma cells; [5]): 1.6 fold; Cd47 upregulation (B16 melanoma cells; [5]): 10 fold |
